{
  "source": "patent EP0260814B1",
  "about": "“Dopamine-Beta-hydroxylase inhibitors” (SMITHKLINE BEECHAM CORPORATION, priority 1986, dated 1988)",
  "key": {"[1]": {"assay": "study comparing effects on blood pressure of hydroxy compounds and their methoxy analogues", "format": "in vivo", "details": "for blood pressure reductions: equivalent doses of hydroxy compound and methoxy analogue", "description": "In a study conducted to compare the effects on blood pressure of compounds wherein Y is -OH, X is 3-F or 3,5-F₂ and n is 1 to their Y is -OCH₃ analogues, the maximum blood pressure reduction observed after administration of the hydroxy compound in which X is 3-F was 18%, whereas one-half the dose of its methoxy analogue produced a 35% blood pressure reduction. Also, equivalent doses of the compound in which Y is -OH, X is 3,5-F₂, and n is 1 and its Y is -OCH₃ analogue produced, respectively, 20% and 35% blood pressure reductions."}, "[2]": {"system": "peripheral dopamine and norepinephrine levels", "assay": "effects on peripheral dopamine and norepinephrine levels (procedure of DaPrada and Zürcher)", "format": "in vivo, Spontaneously hypertensive rats", "method": "Spontaneously hypertensive rats were dosed twice, the second dose being about 18 hr after the first, and were sacrificed about 2 hr after the second dose. […] In Table II, R= -H, Y= -OH and n=1; in Table II A, R= -H, Y= -OCH₃, and n=1."}, "DBH [3]": {"biological_target": "T1, DBH (Homo sapiens, UniProt P09172)", "T1 sequence (P09172 1-617)": "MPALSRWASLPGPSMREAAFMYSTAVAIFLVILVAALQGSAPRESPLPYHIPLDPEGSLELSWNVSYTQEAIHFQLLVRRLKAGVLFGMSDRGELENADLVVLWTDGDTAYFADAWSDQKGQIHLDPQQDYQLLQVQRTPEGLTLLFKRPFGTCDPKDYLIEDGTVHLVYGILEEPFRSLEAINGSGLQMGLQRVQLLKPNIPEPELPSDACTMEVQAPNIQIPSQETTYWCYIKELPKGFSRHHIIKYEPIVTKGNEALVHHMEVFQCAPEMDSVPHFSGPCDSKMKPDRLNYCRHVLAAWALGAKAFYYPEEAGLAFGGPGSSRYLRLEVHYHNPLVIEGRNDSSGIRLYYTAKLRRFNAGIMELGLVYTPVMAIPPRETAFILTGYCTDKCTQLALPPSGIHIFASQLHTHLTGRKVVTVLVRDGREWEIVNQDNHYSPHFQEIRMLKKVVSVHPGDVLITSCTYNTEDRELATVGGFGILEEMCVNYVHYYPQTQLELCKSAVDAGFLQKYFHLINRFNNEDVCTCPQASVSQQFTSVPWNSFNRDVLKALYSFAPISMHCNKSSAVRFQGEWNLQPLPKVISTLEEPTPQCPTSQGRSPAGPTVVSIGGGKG", "assay": "in vitro DBH inhibition: conversion of tyramine to octopamine in the presence of DBH, absorbance at 330 nm", "format": "biochemical", "method": "Octopamine was assayed following sodium periodate oxidation to p-hydroxybenzaldehyde by measuring spectrophotometric absorbance at 330 nm. […] Melting points (mp) are given in °C. […]"}, "DBH [4]": {"biological_target": "T1, DBH", "details": "reported by Runti et al.; cited from earlier work"}},
  "data": [
    {"smiles": "Oc1c(F)cc(Cn2ccnc2S)cc1F", "note": "[n=1, X=3,5-F₂, Y=OH, R=H]", "values": [
      {"measurement": "blood pressure reductions", "setting": "[1]; dose not given", "result": 20, "unit": "%"},
      {"measurement": "DA/NE Ratio", "setting": "[2]; Table II (for X= compounds: R= -H, Y= -OH, n=1), 50 mg/kg, dosed twice", "result": ".0824 .0128^(2)"},
      {"measurement": "DA (µg/g)", "setting": "[2]; Table II (for X= compounds: R= -H, Y= -OH, n=1), 50 mg/kg, dosed twice, sacrificed about 2 hr after second dose", "result": ".708 .068^(1) µg/g"}
    ]},
    {"smiles": "COc1ccc(Cn2ccnc2S)cc1F", "note": "[Example 5, 1-(3-Fluoro-4-methoxybenzyl)-2-mercaptoimidazole]", "values": [
      {"measurement": "blood pressure reduction", "setting": "[1]; one-half the dose of the hydroxy compound in which X is 3-F", "result": 35, "unit": "%"},
      {"measurement": "inhibition at 100 µM", "setting": "DBH [3]; at 10⁻⁴ molar concentration", "result": 67, "unit": "%"}
    ]},
    {"smiles": "O=C(O)c1ccc(Cc2ccc(O)cc2)cn1", "note": "[phenypicolinic acid]", "values": [
      {"measurement": "inhibitory activity relative to fusaric acid", "setting": "DBH [4]", "result": "twice the inhibitory activity of fusaric acid"}
    ]},
    {"smiles": "COc1c(F)cc(Cn2ccnc2S)cc1F", "note": "[Example 6, 1-(3,5-Difluoro-4-methoxybenzyl)-2-mercaptoimidazole]", "values": [
      {"measurement": "blood pressure reductions", "setting": "[1]; dose not given", "result": 35, "unit": "%"},
      {"measurement": "DA/NE Ratio", "setting": "[2]; Table IIA (R= -H, Y= -OCH₃, n=1), dose not given", "result": ".204^(1)"},
      {"measurement": "DA", "setting": "[2]; Table IIA (R= -H, Y= -OCH₃, n=1), dose not given, dosed twice, sacrificed about 2 hr after second dose", "result": "1.178 ± .087 µg/g"}
    ]},
    {"smiles": "Oc1ccc(Cn2ccnc2S)cc1F", "note": "[n=1, X=3-F, Y=OH, R=H]", "values": [
      {"measurement": "maximum blood pressure reduction", "setting": "[1]; after administration of the hydroxy compound, dose not given", "result": 18, "unit": "%"},
      {"measurement": "IC50", "setting": "DBH [3]; molar concentration of compound at which DBH activity was halved, read-out: IC₅₀", "result": 1400, "unit": "nM"}
    ]}
  ]
}
